Source: patent US8691864B2, “Agents useful for reducing amyloid precursor protein and treating dementia and methods of use thereof” (priority 2000, dated 2014)

What was measured:
APP-mRNA 5′UTR = experiment: CAT reporter assay with βAPP-mRNA 5′UTR in transfected U373 MG cells; format: cell-based
Procedure: One day prior to transfection, U373 cells were plated onto 100 mm dishes at a density of 3×10^5 cells. On the day of transfection, the cells were given 5 ml of fresh media containing 10% FBS, 2 mM glutamine in DMEM. The cells were transfected using a calcium phosphate precipitation method, as per the manufacturer's protocol and described previously (Rogers et al., 1999). Briefly, for each plate, three μg of DNA (5′UTR APP-PSV2-CAT or PSV2-CAT vector) were placed in a final volume of […] of 250 mM CaCl2. The chloramphenicol acetyl transferase (CAT) gene was used as a reporter gene. The DNA solution was slowly pipetted into an aerated, equivalent volume of 2×HeBS, pH 7.05. The resulting precipitate was allowed to stand 10-20 min at RT before its addition to the cells. After 18 h, the medium was changed and the transfected cells were left for two days before drug treatment.
The cell lysates from transfected U373 cells treated with phenserine were analyzed for their CAT activity using a colorimetric enzyme immunoassay (Boehringer Mannheim, Indianapolis, Ind.). Briefly, 50 μg of protein (an amount previously found to lie within the linear range of the assay) were placed onto anti-CAT coated microtiter plate modules and allowed to bind for 1 h at 37° C. The plates were washed thoroughly after each step. Next, a digoxigenin-labeled anti-CAT antibody was added to the samples and incubated for 1 h at 37° C. A subsequent antibody, anti-digoxigenin conjugated to peroxidase, was placed in the wells for another hour under similar conditions. Finally peroxidase substrate, ABTS, was added to each well and the absorbance of each sample was measured at a wavelength of 405 nm.
The plasmid PSV2-APP-CatD was provided by Dr. Rogers (1999). […]
Quantitation of the fold stimulus of CAT gene activity conferred by the 5′ UTR βAPP-mRNA was measured. ELISA readings of CAT expression were measured at 405 nm. […] In other assays where the time of treatment was extended to 48 hours, only a 2-fold decrease in CAT reporter mRNA was detected with phenserine treatment.

[1] = in vivo toxicity, i.p. administration to rodents
Procedure: This persisted for an hour and is related to central cholinergic overdrive. […] Animals were incapacitated at 20 mg/kg (N=3 per dose group), and 2 were killed when moribund.

In the case of `CN1CC[C@@]2(C)c3cc(OC(=O)Nc4ccccc4)ccc3N(C)[C@@H]12` [(−)-phenserine], the “CAT activity in pSV2 CAT (parental vector) transfected cells” value (APP-mRNA 5′UTR; control vector, all time points) is reported as “no inhibition”, the “decrease of CAT gene activity conferred by the 5′ UTR βAPP-mRNA” value (APP-mRNA 5′UTR; pSV2 (APP) CAT transfected U373, 50 μM, 1 hour) is reported as 4 fold and the “decrease in CAT activity” value (APP-mRNA 5′UTR; pSV2 (APP) CAT transfected U373, treatment extended to 48 hours) is reported as 2 fold. For the same compound, the clinical signs ([1]; 5 mg/kg) was “a fine tremor is observed”, the clinical signs ([1]; 7.5 mg/kg) was “Tremor together with symptoms of peripheral cholinergic overdrive” and the “duration of tremor and peripheral cholinergic symptoms” value ([1]; 7.5 mg/kg) was about 3 h. The clinical signs ([1]; 20 mg/kg) was “incapacitated”.
